Values after ≈ are worked out from the molar mass of the structure shown. Active and inactive are the calls of the source. The rule behind the calls is not given here.
Tests used:
Type in all cases: functional
[1] = system: P388; test: Cytotoxicity against mouse P388 cells; settings: read-out: ED50 (the source's name)
[2] = system: KB; test: Cytotoxicity against human KB cells; settings: read-out: ED50 (the source's name)
[3] = system: P388; test: Antileukemic activity against mouse P388 cells xenografted in BDF1 mouse at 10 mg/kg/day relative to control
[4] = Antitumor activity against mouse CA-755 cells xenografted in mouse assessed as reduction in tumor weight at 450 mg/kg/day; set-up: scale not given: the % may be the effect or the level left

SMILES: COc1c(O)ccc2c1C(=O)c1ccccc1C2=O
- EC50 [1]: 27 µg/mL (≈ 106 µM)
- EC50 [2]: > 10 µg/mL
- T/C [3]: 136%

SMILES: COc1ccc2c(c1O)C(=O)c1ccccc1C2=O
- T/C [3]: 126%

SMILES: O=C1c2ccccc2C(=O)c2c1ccc1c2OCO1
- EC50 [1]: 1.85 µg/mL (≈ 7.33 µM)
- EC50 [2]: > 10 µg/mL
- T/C [3]: 129%

SMILES: O=C(/C=C/c1ccccc1)Oc1ccc2c(c1O)C(=O)c1ccccc1C2=O
- Activity [3]: inactive

SMILES: O=C1c2ccccc2C(=O)c2c1ccc(O)c2O [ATHRAQUINONES A]
- Activity [4]: 60%
- T/C [3]: 134%

SMILES: CC(=O)Oc1ccc2c(c1O)C(=O)c1ccccc1C2=O
- Activity [3]: inactive

SMILES: O=C1c2ccccc2C(=O)c2c1ccc1c2OCCO1
- T/C [3]: 130%

SMILES: CC(C)=CC(=O)Oc1ccc2c(c1OC(=O)C=C(C)C)C(=O)c1ccccc1C2=O
- Activity [3]: inactive

SMILES: CC(=O)Oc1ccc2c(c1OC(C)=O)C(=O)c1ccccc1C2=O
- Activity [3]: inactive

SMILES: O=C(/C=C/c1ccccc1)Oc1ccc2c(c1OC(=O)/C=C/c1ccccc1)C(=O)c1ccccc1C2=O
- Activity [3]: inactive

SMILES: CC(C)=CC(=O)Oc1ccc2c(c1O)C(=O)c1ccccc1C2=O
- Activity [3]: inactive

From ChEMBL document CHEMBL1151383, “Antitumor agents 50. 1 Morindaparvin-A, a new antileukemic anthraquinone, and alizarin-1-methyl ether from Morinda parvifolia, and the antileukemic activity of the related derivatives” (1982)
